Results reported in patent US20210069269A1, “METHOD FOR ALLEVIATING TOBACCO OR NICOTINE WITHDRAWAL SYMPTOMS” (DANSTAR FERMENT AG, priority 2018, published 2021).

Tested on: C. elegans wild type strain N2
Assay: C. elegans behavioral toxicity (thrashing/swimming) assay after 24 hours exposure to nicotine or tobacco extract with or without probiotic bacteria
Settings: control worms with no bacteria, FIG. 1
Protocol: Experiments were carried out with the wild type strain N2 of C. elegans. Worms were synchronized by isolating eggs from gravid adults, collecting the eggs in M9 buffer, hatching the eggs overnight in NGM plates and sterilely isolating L1-stage worms with M9 buffer. The L1-stage worms were transferred to NGM (Nematode Growth Medium) plates inoculated with Escherichia coli strain OP50 and incubated for four days at 15° C. to reach adulthood.
Similarly, a natural tobacco extract (ABT #6079, Advanced Biotech) was diluted in M9 buffer to a final concentration of 6.2 mM.
Adult worms were washed in M9 buffer and 250 μl of worm suspension was transferred to 24-well culture plates with or without nicotine (250 μl if present) or tobacco extract (250 μl if present) and with or without probiotic suspension (500 μl if present). The probiotic suspension was added first to the wells followed by the nicotine or the tobacco extract. At least 40 worms were present per well. The plates were incubated at 20° C. for 24 hours. After incubation period, worm suspension in each well was washed three times in M9 buffer (centrifugation of four minutes at 1000 rpm). The worms were transferred in new 24-well culture plates containing 1 ml of agar 1% in each well. The worms were allowed to equilibrate for 45 minutes, and then the thrashing (swimming) was recorded using a Leica EC3 camera. […]

Compound: CN1CCCC1c1cccnc1.O.O.O=C(O)C(O)C(O)C(=O)O.O=C(O)C(O)C(O)C(=O)O (stereo not shown) [nicotine, Nicotine ditartrate dihydrate]
- behavioral toxicity of the challenge agent to worms without bacteria: induced a reversible paralysis
